Laboratory results taken from US11891385B1, “1-cyclopropyl-7-(4-((5-(3,5-dichlorobenzylideneamino)-2-thioxo-1,3,4-thiadiazol-3(2H)-yl)methyl)piperazin-1-yl)-6-fluoro-4-oxo-1,4-dihydroquinoline-3-carboxylic aci d as an anti-inflammatory compound” (KING FAISAL UNIVERSITY, priority 2023, dated 2024).
Like-named read-outs stand apart in the source and are kept apart here.

Molecular target: Bovine serum albumin (Bos taurus, UniProt P02769)
Test: Bovine Serum Albumin (BSA) assay, in-vitro protein denaturation
Format: biochemical
Details: for inhibition at 20 µg/mL / inhibition at 40 µg/mL / inhibition at 60 µg/mL / inhibition at 80 µg/mL / inhibition at 100 µg/mL: 72° C. for 10 minutes, turbidity at 660 nm
Method: Bovine Serum Albumin Assay (BSA) In vitro-inflammatory activities of the tested samples were determined using a modified method of the BSA assay reported by Williams et al. BSA solution (0.4%, w/v) was prepared in Tris Buffered Saline. The pH was adjusted to 6.4 with glacial acetic acid. Different dilutions of 20, 40, 60, 80, and 100 μg/mL of 1-cyclopropyl-7-(4-((5-(3,5-dichlorobenzylideneamino)-2-thioxo-1,3,4-thiadiazol-3(2H)-yl)methyl)piperazin-1-yl)-6-fluoro-4-oxo-1,4-dihydroquinoline-3-carboxylic acid (IV) and the stock solutions were added to test tubes containing 1 mL of 0.4%, w/v BSA buffer solution. Both negative (solvent) and positive (aspirin) controls were assayed in a similar manner. The solutions were then heated in a water bath at 72° C. for 10 minutes, and cooled for 20 minutes under laboratory conditions. The turbidity of the solutions (level of protein precipitation) was measured at 660 nm in Spectrophotometer (V-770 UV-Visible/NIR Spectrophotometer). The percentage inhibition of precipitation (protein denaturation) was determined relative to the negative control using the following equation: [formula] [formula] Anti-Inflammatory Activity

Bovine serum albumin, sequence (P02769 25-607): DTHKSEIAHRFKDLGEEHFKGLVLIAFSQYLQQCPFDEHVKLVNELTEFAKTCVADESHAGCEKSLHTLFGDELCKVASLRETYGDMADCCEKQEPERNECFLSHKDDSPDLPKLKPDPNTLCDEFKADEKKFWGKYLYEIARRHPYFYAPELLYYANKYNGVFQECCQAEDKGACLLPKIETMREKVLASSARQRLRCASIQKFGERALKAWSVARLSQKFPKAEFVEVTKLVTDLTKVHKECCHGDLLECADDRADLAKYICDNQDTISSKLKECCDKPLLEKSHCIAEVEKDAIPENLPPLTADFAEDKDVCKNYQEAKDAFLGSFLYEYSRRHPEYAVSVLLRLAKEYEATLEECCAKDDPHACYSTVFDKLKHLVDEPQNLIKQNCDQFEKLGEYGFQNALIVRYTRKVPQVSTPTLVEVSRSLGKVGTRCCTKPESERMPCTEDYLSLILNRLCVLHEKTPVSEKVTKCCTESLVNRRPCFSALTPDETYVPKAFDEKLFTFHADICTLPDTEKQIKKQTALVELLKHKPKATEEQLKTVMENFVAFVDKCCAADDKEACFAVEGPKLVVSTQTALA

| Compound | in vitro anti-inflammatory activity (result in words) (BSA protein denaturation) | % Inhibition of protein denaturation (Bovine serum albumin) (bovine, 10 min, 100 μg/mL, pH 6.4) | inhibition at 20 µg/mL (read-out: % Inhibition of protein denaturation (Bovine serum albumin), concentration 20 μg/ml) | inhibition at 40 µg/mL (read-out: % Inhibition of protein denaturation (Bovine serum albumin), concentration 40 μg/ml) | inhibition at 60 µg/mL (read-out: % Inhibition of protein denaturation (Bovine serum albumin), concentration 60 μg/ml) | inhibition at 80 µg/mL (read-out: % Inhibition of protein denaturation (Bovine serum albumin), concentration 80 μg/ml) | inhibition at 100 µg/mL (read-out: % Inhibition of protein denaturation (Bovine serum albumin), concentration 100 μg/ml) | inhibition at 20 µg/mL (concentration 20 μg/ml, read-out: % Inhibition of protein denaturation (Bovine serum albumin)) | inhibition at 40 µg/mL (concentration 40 μg/ml, read-out: % Inhibition of protein denaturation (Bovine serum albumin)) | inhibition at 60 µg/mL (concentration 60 μg/ml, read-out: % Inhibition of protein denaturation (Bovine serum albumin)) | inhibition at 80 µg/mL (concentration 80 μg/ml, read-out: % Inhibition of protein denaturation (Bovine serum albumin)) | inhibition at 100 µg/mL (concentration 100 μg/ml, read-out: % Inhibition of protein denaturation (Bovine serum albumin)) |
| --- | --- | --- | --- | --- | --- | --- | --- | --- | --- | --- | --- | --- |
| O=C(O)c1cn(C2CC2)c2cc(N3CCN(Cn4nc(/N=C/c5cc(Cl)cc(Cl)c5)sc4=S)CC3)c(F)cc2c1=O [IV, 1-cyclopropyl-7-(4-((5-(3,5-dichlorobenzylideneamino)-2-thioxo-1,3,4-thiadiazol-3(2H)-yl)methyl)piperazin-1-yl)-6-fluoro-4-oxo-1,4-dihydroquinoline-3-carboxylic acid] | considerable anti-inflammatory effect | 83.77% | 58% | 68.7% | 73.2% | 80% | 87.6% | – | – | – | – | – |
| CC(=O)Oc1ccccc1C(=O)O [aspirin, reference compound] | – | – | – | – | – | – | – | 71% | 77.5% | 82.6% | 85.5% | 90.8% |
